Test results published in US20220305020A1, “THE USE OF PARAXANTHINE TO REDUCE EXERCISE-INDUCED MENTAL FATIGUE” (Ingenious Ingredients, LP, priority 2021, published 2022).

Columns and labels:
[1] = system: trained runners; assay: Berg-Wisconsin Card Sorting Test (BCST) before and after a mentally fatiguing 10-km run; type: in vivo, human; conditions: 200 mg oral; after 10-km run compared to pre-exhaustive exercise
Experimental: (§1) Trained runners from local running and triathlon clubs and races were recruited to participate in this study. Cognitive performance was assessed prior and after a mentally fatiguing endurance run. Eligibility criteria included healthy trained runners or triathletes between 18-40 years of age, current (>6 months) history of run training, and documented evidence that they averaged 8 minute/mile or less running pace during a recent competition (e.g., completing a 5-km road race or marathon). Qualified runners were invited to attend a familiarization session which provided an overview of the study and participants informed consent to participate in the study. A total of 32 individuals responded to study advertisements and were assessed for eligibility, 28 completed a familiarization session, 13 met eligibility requirements, agreed to participant in the study and were randomized into treatments. 1 subject dropped out of the study due to not complying with the study protocol. 12 subjects (11 males, 1 female) ultimately finished the trial. Volunteers visited the lab a total of five times including one familiarization session and four experimental sessions. During the familiarization session, participants were explained the study protocol, provided informed consent, answered a medical questionnaire, and had height, weight, resting heart rate, and resting blood pressure. Males then had body composition determined using dual energy X-ray absorptiometry (DXA) while females took a urine pregnancy test prior to the DXA scan to verify they were not pregnant. Participants then took each cognitive function test three times to familiarize them to the tests and establish test reliability. Volunteers practiced running on the treadmill to be used in the study at race pace. Once completed, the participants then performed a graded maximal cardiopulmonary (VO2 peak) treadmill test to determine peak heart rate and aerobic capacity. Participants were also asked to maintain usual eating habits and avoid new dietary supplements for the duration of the study. Participants were also asked to prepare for each testing session as they would a 10-km road race and refrain from vigorous physical activity, alcohol intake, and over-the-counter medications for 24 hours as well as fast for 8-12 hours prior to reporting to the lab. […] Upon arriving at the lab, participants had weight, resting heart rate, and blood pressure determined. Participants then completed a side effects questionnaire, performed two cognitive function tests, the Psychomotor Vigilance Task Test (PVTT), a test that objectively assesses fatigue-related changes in alertness, and the Berg-Wisconsin Card Sorting Test (BCST), donated a fasting blood sample, and then ingested 1 of 4 randomly assigned oral supplements (PRE). Supplements were administered in a double blind, randomized, and crossover manner using a Balanced Latin Square method to counterbalance the order of treatment administration. Treatments included (1) 400 mg of placebo (PL, wheat flour, Shandong Bailong Chuangyuan Bio-tec Co. Ltd., Dezhou, China); (2) 200 mg of PL+200 mg of Caffeine (CSPC Innovation Pharmaceutical Co. Ltd., Shi Jiazhuang, China); (3) 200 mg of PL+200 mg of […], Ingenious Ingredients, L.P. Lewisville, Tex., USA) or (4) 200 mg CA+200 mg of PX (CA+PX). Supplements were prepared using good manufacturing practices and certified for content. Supplements were the same size and appearance and packaged in generically labeled bottles for administration in a double-blind manner. Participants ingested one capsule with 8-ounces of water of the assigned treatment. Participants then rested for 15-minutes and repeated these tests. Volunteers then performed a 10-km run at their self-determined pace. Heart rate was obtained every kilometer during the run. Once completed, participants donated a venous blood sample. Participants then completed the cognitive function tests and the side effects questionnaire. […]

[2] = system: Male, 51; assay: Uchida-Kraepelin test (UKT), serial calculation test of mental fatigue; type: in vivo, human; conditions: one subject; for increase of mean performance during the first 15-minutes of UKT / mental fatigue (gradual decrease in performance) during the second 15-minutes of UKT: 200 mg of paraxanthine or 200 ng of caffeine
Experimental: […], consumed 200 mg of paraxanthine or […] or placebo, separated by one-week wash-out, prior to performing a serial calculation test, the Uchida-Kraepelin test (UKT), that is designed to measure mental fatigue. The test has been standardized and is widely used in clinical psychology, psychiatry, and occupational mental health practice. In this test, a subject is instructed to perform serial calculation of random numbers printed on a paper for 15 minutes. After a 5-minute rest, another 15 minutes of calculations are performed. The test subject is instructed to compute as many calculations as possible. Performance is assessed by 1-minute intervals.

[3] = system: trained runners; assay: Psychomotor Vigilance Task Test (PVTT) before and after a mentally fatiguing 10-km run; type: in vivo, human
Experimental: as §1

[4] = system: BDNF; assay: BDNF levels in young and old rats after paraxanthine supplementation; type: in vivo
[5] = system: catalase; assay: Catalase levels in young and old rats after paraxanthine supplementation; type: in vivo
[6] = system: glutathione; assay: Glutathione levels in young and old rats after paraxanthine supplementation; type: in vivo
[7] = 200 mg oral, compared to pre-exhaustive exercise
[8] = old rats, high-dose paraxanthine group
[9] = old rats, low-dose paraxanthine group
[10] = young rats, high-dose paraxanthine group
[11] = young rats, low-dose paraxanthine group

Cn1c(=O)c2c(ncn2C)n(C)c1=O [caffeine, reference compound]
increase in number of correct responses in the BCST [1]: did not change
increase in number of errors in the BCST [1]: 19.4%
increase in number of preservative errors (PAR rules) in the BCST [1]: 23.3%
increase in number of preservative errors in the BCST [1]: 15.9%
increase of mean performance during the first 15-minutes of UKT [2]: 7%
mental fatigue (gradual decrease in performance) during the second 15-minutes of UKT [2]: failed to prevent metal fatigue

Cn1c(=O)[nH]c2ncn(C)c2c1=O [paraxanthine]
increase in number of correct responses in the BCST [1]: 5.7%
reduction in number of errors in the BCST [1]: 1.5%
reduction in number of preservative errors (PAR rules) in the BCST [1]: 10.6%
reduction in number of preservative errors in the BCST [1]: 4.6%
greater improvement in reaction time compared to caffeine, trial 2 ([3]; 200 mg oral each, PVTT): 25%
greater improvement in reaction time compared to caffeine, trial 10 ([3]; 200 mg oral each, PVTT): 44%
greater improvement in reaction time compared to caffeine, trial 20 ([3]; 200 mg oral each, PVTT): 12%
improvement of reaction time in the PVT Test, early trials (trial 2) [3, 7]: 7.3%
improvement of reaction time in the PVT Test, late trials (trial 20) [3, 7]: 10.9%
improvement of reaction time in the PVT Test, middle trials (trial 10) [3, 7]: 10.9%
increase of mean performance during the first 15-minutes of UKT [2]: 15%
mental fatigue (gradual decrease in performance) during the second 15-minutes of UKT [2]: prevented mental fatigue
increase of mean performance during the second 15-minutes of UKT ([2]; 200 mg of paraxanthine): 21%
BDNF levels [4, 8]: 863.40 ± 35.21 pg/mL
BDNF levels [4, 9]: 776.40 ± 18.54 pg/mL
BDNF levels [4, 10]: 939.15 ± 42.34 pg/mL
BDNF levels [4, 11]: 828.05 ± 35.03 pg/mL
catalase levels [5, 8]: 36.84±1.68 U/mL
catalase levels [5, 9]: 29.34±1.50 U/mL
catalase levels [5, 10]: 38.91±2.65 U/mL
catalase levels [5, 11]: 30.24±1.58 U/mL
glutathione levels [6, 8]: 27.49 ± 0.84 µg/mL
glutathione levels [6, 9]: 22.27 ± 1.00 µg/mL
glutathione levels [6, 10]: 34.41 ± 1.97 µg/mL
glutathione levels [6, 11]: 24.04 ± 1.74 µg/mL
